The text below walks through data of patent publication US20240425464A1, “Substituted Monohydrazides as Potent Antifungal Agents” (University of Kentucky Research Foundation, priority 2023, published 2024).

Each structure is given as a SMILES string. Converted amounts (≈) assume the structure as drawn. “And” between values parts separate entries of the source, which are not always exact repeats. Equal values may be shown once. Read-outs that look alike come from different tables or passages of the source.

What all share (type): cell-based, Candida albicans
For test [1], the system named is C. albicans ATCC 10231 (strain A). Briefly: MIC determination by in vitro antifungal assay (CLSI broth dilution). The note with it: strain A = C. albicans ATCC 10231, no visible growth, 48 h at 35° C. In outline: (§1)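 Fungi are exposed to compounds (0.06-31.3 μg/mL, double dilution) in RPMI 1640 adjusted to pH 7.0 with MOPS. Incubation runs 48 h at 35° C, based on CLSI M27-A3/M38-A2. Yeast suspensions start at ˜1×10^6 CFU/mL and are diluted 1:100.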
In general terms: In broth dilution the organism is exposed to a series of concentrations in liquid medium.

In test [2] the test system is C. albicans ATCC MYA-2876 (C). The test can be described thus: MIC determination by in vitro antifungal assay. Conditions: strain C = C. albicans ATCC MYA-2876(S). In outline: as §1
In test [3] the test system is C. albicans ATCC MYA-1003 (G). The test can be described thus: MIC determination by in vitro antifungal assay. The note with it: strain G = C. albicans ATCC MYA-1063(R) (footnote), MYA-1003 in text. Put shortly:
as §1

For test [4], the system named is C. albicans ATCC MYA-2310 (E). The test can be described thus: MIC determination by in vitro antifungal assay. The note with it: strain E = C. albicans ATCC MYA-2310. In outline:
as §1

Test [5] concerns C. albicans ATCC MYA-1237 (F). The test can be described thus: MIC determination by in vitro antifungal assay. Conditions: strain F = C. albicans ATCC MYA-1237(R). Put shortly: as §1
The test system of test [6] is C. albicans ATCC 64124 (B). The test can be described thus: MIC determination by in vitro antifungal assay. Put shortly: as §1
For test [7], the system named is C. albicans ATCC 90819 (D). Briefly: MIC determination by in vitro antifungal assay. Put shortly:
as §1

The mark [8] stands for this setting: strain B = C. albicans ATCC 64124.
Where [9] appears, read: strain D = C. albicans ATCC 90819(R).
[10] abbreviates: Candida albicans, ATCC10231, 48 h, read-out: MIC.
Where [11] appears, read: Candida albicans, read-out: MIC.
Where [12] appears, read: Candida albicans, ATCC64124, strain B = C. albicans ATCC 64124, read-out: MIC.
Setting [13] is: Candida albicans, ATCC90819, strain D = C. albicans ATCC 90819(R), read-out: MIC.

As for `C[C@@H]1[C@H](O)[C@@H](C)/C=C/C=C/C=C/C=C/C=C/C=C/C=C/[C@H](O[C@@H]2O[C@H](C)[C@@H](O)[C@H](N)[C@@H]2O)C[C@@H]2O[C@](O)(C[C@@H](O)C[C@@H](O)[C@H](O)CC[C@@H](O)C[C@@H](O)CC(=O)O[C@H]1C)C[C@H](O)[C@H]2C(=O)O` [AmB, amphotericin B, reference compound], the MIC is 1.95 μg/mL^−1 in test [1]; 1.95 μg/mL^−1 in test [2]; 0.98 μg/mL^−1 and 1.95 μg/mL^−1 in test [3]; 0.98 μg/mL^−1 in test [4]; 1.95 μg/mL^−1 in test [5]; 1.95 μg/mL^−1 in test [6] (setting [8]). Also, the MIC in test [7] (setting [9]) stood at 0.98 μg/mL^−1.
Turning to `COc1cccc(NNC(=O)c2ncc(F)cc2F)c1` [Compound 7c], the MIC in test [1] (setting [10]) turned out to be 0.98 µg/mL (≈ 3.51 µM); in test [2] (setting [11]), 3.9 µg/mL (≈ 14 µM); in test [3] (setting [11]), 1.95 µg/mL (≈ 6.98 µM); in test [4] (setting [11]) it was 3.9 µg/mL (≈ 14 µM); in test [5] (setting [11]), 3.9 µg/mL (≈ 14 µM); in test [6] (setting [12]), 1.95 µg/mL (≈ 6.98 µM). In addition, in test [7] (setting [13]), the MIC was 7.8 µg/mL (≈ 27.9 µM).
On to `COc1ccc(NNC(=O)c2nc(F)ccc2F)cc1` [Compound 8f], for which the MIC in test [1] (setting [10]) amounted to 1.95 µg/mL (≈ 6.98 µM); in test [2] (setting [11]) it was 1.95 µg/mL (≈ 6.98 µM); in test [3] (setting [11]), 0.98 µg/mL (≈ 3.51 µM); in test [4] (setting [11]) it was 1.95 µg/mL (≈ 6.98 µM); in test [5] (setting [11]) it was 0.98 µg/mL (≈ 3.51 µM); in test [6] (setting [12]), 1.95 µg/mL (≈ 6.98 µM). The MIC in test [7] (setting [13]) came out at 1.95 µg/mL (≈ 6.98 µM).
Consider `O=C(NNc1ccc(Cl)cc1)c1cnccn1` [Compound 9e], for which the MIC in test [1] is listed as 0.98 μg/mL^−1; in test [2], 3.9 μg/mL^−1; in test [3], 1.95 μg/mL^−1; in test [4] it was 1.95 μg/mL^−1; in test [5] it was 0.98 μg/mL^−1; in test [6] (setting [8]) it was 1.95 μg/mL^−1. Further, the MIC in test [7] (setting [9]) worked out at 0.98 μg/mL^−1.
